System: MRSA USA300 LAC
Assay: Antimicrobial activity assay
Assay type: cell-based, Staphylococcus aureus

## (CPraWLVWV) (head to tail) [compound 24, 2‐Pra‐6‐Trp‐lug]
MIC ≥100 μg mL^−1 regarded as inactive
  antimicrobial activity against USA300 (in words): active
From MIC values, compared with 1
  change of antimicrobial activity relative to 1: equal activity

Reference: PMC6618241 (Angewandte Chemie (International Ed. in English), 2019)
